Consider 4 compounds from patent US8318943B1, “Sorbitol/dexlansoprazole co-crystals and method for making same” (Takeda Pharmaceuticals U.S.A., Inc., priority 2010, dated 2012).

Structures are written as SMILES. Converted amounts (≈) assume the structure as drawn. Like-named read-outs stand apart in the source and are kept apart here.

For series [1] the following is noted: cited from earlier work.
The nature of series [2]: Approximate solubility tests in selected solvents. The conditions noted are these: organic solvent or mixture, read-out: Solubility [S, mg/ml]. The series is classed as physicochemical. The text has this:
A sample of dexlansoprazole sesquihydrate was characterized by FT-Raman spectroscopy, XRPD, ^1H-NMR and approximate solubility tests.
Accordingly, ethanol, ethyl acetate, acetonitrile, and THF were chosen as solvents for the co-crystal screening.

The nature of a further series: physchem. The conditions noted are these: thermodynamic from solid.
Series [3] is described as follows: Dynamic vapor sorption (DVS), hygroscopicity. The series is classed as physicochemical. The protocol:
DVS was carried out in a Surface Measurement System DVS-1. The sample was placed on a platinum holder on top of a microbalance and allowed to equilibrate for 2 hours at 50% r.h. before starting the pre-defined humidity program: 50→95% r.h. (5%/h); 5 hours at 95% r.h., 95→0% r.h. (5%/h); 5 h at 0% r.h., then 0→50% r.h. (5%/h); and 2 hours at 50% r.h.
The hygroscopicity was classified based on the mass gain at 85% r.h. relative to the initial mass as follows: deliquescent (sufficient water adsorbed to form a liquid), very hygroscopic (mass increase of ≧15%), hygroscopic (mass increase <15% but ≧2%), slightly hygroscopic (mass increase <2% but ≧0.2%), or non-hygroscopic (mass increase <0.2%).
In order to examine the behavior of SP134-SBT-P26 in the presence of variable water vapor pressure, the sample was analyzed by isothermal DVS at 25° C. […] The sample was conditioned at 50% r.h. before starting a pre-defined humidity program with a scanning rate of 5% r.h. change per hour. Below 50% r.h. a small but continuous mass loss of the sample is observed (˜0.07%). This mass loss is in good accordance to the results of the TG-FTIR-measurement and Karl Fischer water content determination.
In order to examine the behavior of SP134-SBT-P27 in the presence of variable water vapor pressure, the sample was analyzed by isothermal DVS at 25° C. The sample was conditioned at 50% r.h. before starting a pre-defined humidity program with a scanning rate of 5% r.h. change per hour. Below 50% r.h. a small but continuous mass loss of the sample is observed (˜0.06%). This mass loss is in good accordance to the results of the TG-FTIR-measurement and Karl Fischer water content determination.

The nature of series [4]: Approximate solubility by manual dilution combined with visual observation.
Description: (§1) The approximate solubilities of the sorbitol co-crystal former were estimated at 60° C. and of the 1:1 dexlansoprazole-sorbitol co-crystal at 40° C. and 10° C. […] The solubility values presented are intended to be regarded as rough estimates and are to be used solely for the design of crystallization experiments. All solvent mixtures are listed as ratios by volume (v/v).
(§2) The solubility values presented are intended to be regarded as rough estimates and are to be used solely for the design of crystallization experiments. All solvent mixtures are listed as ratios by volume (v/v).
[5] abbreviates: 1:1 EtOAc/DMSO (v/v), organic solvent or mixture.
[6] abbreviates: 1:1 EtOH/H2O (v/v), aqueous with cosolvent or surfactant or cyclodextrin.
Setting [7] is: 2:1 EtOH/H2O + 5 vol.-% NH3 solution, aqueous with cosolvent or surfactant or cyclodextrin.
The mark [8] stands for this setting: 2:1 MeOH/H2O + 5 vol.-% NH3 solution, aqueous with cosolvent or surfactant or cyclodextrin.
Where [9] appears, read: 2:1 MeOH/borax buffer, pH 9, aqueous with cosolvent or surfactant or cyclodextrin.
Where [10] appears, read: 9:1 EtOAc/DMSO (v/v), organic solvent or mixture.
The mark [11] stands for this setting: DMSO, organic solvent or mixture.
Setting [12] is: EtOAc, organic solvent or mixture.
[13] abbreviates: MeOH, organic solvent or mixture.
Where [14] appears, read: isothermal DVS at 25° C., listed as SP134-SBT-P27.

Description for physchem: as §1, §2

On to `Cc1c(OCC(F)(F)F)ccnc1C[S@@+]([O-])c1nc2ccccc2[nH]1` [Dexlansoprazole], for which the Descriptive solubility entry in series [1] (acetonitrile) is “soluble”; in series [1] (dichloromethane) it was “freely soluble”; in series [1] (dimethyl formamide) it was “freely soluble”; in series [1] (ethanol) it was “freely soluble”; in series [1] (ether), “slightly soluble”; in series [1] (ethyl acetate) it was “freely soluble”. Further, the Descriptive solubility entry in series [1] (hexane) is given as “substantially insoluble”; in series [1] (methanol) it was “freely soluble”; in series [1] (water), “very slightly soluble”. Besides, in series [1] (light), the “Stability when exposed to light” value is recorded as “stable”. Also, the “Stability depending on pH conditions” value in series [1] (neutral and alkaline vs acidic conditions) was “more stable in neutral and alkaline conditions than acidic conditions”.

As for `Cc1c(OCC(F)(F)F)ccnc1C[S@@+]([O-])c1nc2ccccc2[nH]1` [SP134-FD-P1, dexlansoprazole sesquihydrate, reference compound], the solubility in series [2] (MEK) was about 226 mg/mL; in series [2] (THF), about 228 mg/mL; in series [2] (acetone), about 230 mg/mL; in series [2] (acetonitrile), about 210 mg/mL; in series [2] (ethanol), about 228 mg/mL; in series [2] (ethyl acetate) it was about 204 mg/mL. Further, the solubility was about 204 mg/mL in series [2] (methanol); over 200 mg/mL in “physchem” (setting [5]); about 30 mg/mL in “physchem” (setting [6]); 100 to 200 mg/mL in “physchem” (setting [7]); 100 to 200 mg/mL in “physchem” (setting [8]); 90 to 190 mg/mL in the series “physchem” (setting [9]). Moreover, the solubility was over 200 mg/mL in “physchem” (setting [10]); over 200 mg/mL in “physchem” (setting [11]); over 20 mg/mL in the series “physchem” (setting [12]); over 200 mg/mL in “physchem” (setting [13]); over 200 mg/mL in the series “physchem” (ethanol, organic solvent or mixture); under 1 mg/mL in “physchem” (water).

`Cc1c(OCC(F)(F)F)ccnc1C[S@@+]([O-])c1nc2ccccc2[nH]1.OC[C@@H](O)[C@@H](O)[C@H](O)[C@@H](O)CO` [SP134-SBT-P26]: the “FT-Raman post-DVS compared with pre-DVS/reference (form change)” value in series [3] (after DVS cycle) is “no phase transition”. For the same compound, the “DVS water uptake at about 85% r.h. relative to the mass at 0% r.h.” value in series [3] (isothermal DVS at 25° C.) is on record as 0.12%; in series [3] (setting [14]) it was 0.08%. Besides, the “DVS mass loss below 50% r.h.” value in series [3] (isothermal DVS at 25° C.) is about 0.07%; in series [3] (setting [14]), about 0.06%. For the same compound, the Hygroscopicity class entry in series [3] (isothermal DVS at 25° C., water uptake at about 85% r.h. relative to the mass at 0% r.h.) is given as “not hygroscopic”. Also, the Approximate solubility in series [4] (1:3 DMSO/EtOH, 10° C.) was 14 to 16 mg/mL; in series [4] (1:3 DMSO/EtOH, 40° C.), 50 to 63 mg/mL; in series [4] (1:4 DMSO/EtOH, 10° C.), 11.5 to 12.5 mg/mL; in series [4] (1:4 DMSO/EtOH, 40° C.), over 37 mg/mL; in series [4] (1:5 DMSO/EtOH, 10° C.) it was 9.3 to 9.8 mg/mL; in series [4] (1:5 DMSO/EtOH, 40° C.) it was 17 to 23 mg/mL. In series [4] (DMSO/EtOH, 40° C.), the “Solubility relative to sorbitol and dexlansoprazole” value is “less soluble than sorbitol and dexlansoprazole”.

`OC[C@@H](O)[C@@H](O)[C@H](O)[C@@H](O)CO` [Sorbitol, D-sorbitol]: the solubility in “physchem” (1:1 DMSO/EtOH (v/v), 60 °C, organic solvent or mixture) is over 102 mg/mL; in the series “physchem” (setting [5]), 125 to 250 mg/mL (≈ 686 to 1370 mM); in “physchem” (1:1 EtOAc/EtOH (v/v), 60 °C, organic solvent or mixture), 3 mg/mL (≈ 16.5 mM); in the series “physchem” (setting [6]), about 160 mg/mL (≈ 878 mM); in the series “physchem” (1:2 EtOAc/EtOH (v/v), 60 °C, organic solvent or mixture), 6 mg/mL (≈ 32.9 mM); in “physchem” (1:3 DMSO/EtOH (v/v), 60 °C, organic solvent or mixture), 54 to 108 mg/mL (≈ 296 to 593 mM). In addition, the solubility is 10 mg/mL (≈ 54.9 mM) in “physchem” (1:3 EtOAc/EtOH (v/v), 60 °C, organic solvent or mixture); 39 to 59 mg/mL (≈ 214 to 324 mM) in the series “physchem” (1:5 DMSO/EtOH (v/v), 60 °C, organic solvent or mixture); 11 mg/mL (≈ 60.4 mM) in “physchem” (1:5 EtOAc/EtOH (v/v), 60 °C, organic solvent or mixture); 125 to 250 mg/mL in the series “physchem” (setting [7]); over 250 mg/mL in “physchem” (setting [8]); over 250 mg/mL in “physchem” (setting [9]). Moreover, the solubility in “physchem” (setting [10]) is about 1 mg/mL (≈ 5.49 mM); in “physchem” (setting [11]) it was over 200 mg/mL; in the series “physchem” (setting [12]), under 1 mg/mL; in “physchem” (setting [13]), about 13 mg/mL (≈ 71.4 mM); in “physchem” (water) it was over 200 mg/mL.
